Data reported in PubChem BioAssay AID179 (DTP/NCI, 2004).
pEC50, pIC50: −log10 of the molar value. Values joined by “and” are separate entries in the source; they are usually repeats but may differ in a detail not shown here. Identical values can stand only once. Active and inactive are the calls of the source.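 Rule for the calls: active = compounds giving half or more protection of infected cells from virus-caused growth loss, again on retest; inactive = the rest.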 Where a SMILES comes first, the peptide text is derived from it. [ ]: non-standard residue; d: D form. The star is where a group is joined. Phe(4-NO2) = N[CH](Cc1ccc([N+](=O)[O-])cc1)C(=O)O; Boc = CC(C)(C)OC(=O)*; OBn = c1ccc(CO*)cc1; OtBu = CC(C)(C)O*

System: CEM cells HIV-1 protection, formazan growth assay
Assay: NCI AIDS Antiviral Assay
Details: for pIC50: measured here: growth of uninfected CEM cells
How it was run: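 Human CEM cells, uninfected and HIV-1-infected, received five drug concentrations, and growth was read by soluble formazan assay. Compounds giving at least 50% protection were retested; reproducible 100% protection defined confirmed active.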

Structure (SMILES)	pEC50	pIC50	outcome
[N-]=[N+]=C(C(=O)OCC#CCOC(=O)C(=[N+]=[N-])S(=O)(=O)c1ccccc1)S(=O)(=O)c1ccccc1	< 3.70	3.87	
CCC(C)C(CC)C(N)=O (configuration not stated)	< 3.70	< 3.70	
Cc1cc(S(=O)(=O)/N=C(/NN)NNc2cccc(C(F)(F)F)n2)c(S)cc1Cl	< 3.70	4.37	
COC(=O)C(Cc1ccc([N+](=O)[O-])cc1)NC(=O)C(CC(=O)OC(C)(C)C)NC(=O)OC(C)(C)C (configuration not stated) (Boc-Asp(OtBu)-[Phe(4-NO2)]-OMe; configuration not given here)	< 3.70	4.03	
C(CCC[Te][Te]CCCCCCOC1CCCCO1)CCOC1CCCCO1 (configuration not stated)			inactive
O=P(O)(O)CN1CCN(CP(=O)(O)O)CCN(CP(=O)(O)O)CCN(CP(=O)(O)O)CC1	< 4.00	4.69	
CC(=O)C(N=Nc1nc2ccccc2[nH]1)C(C)=O	< 3.70	4.70	
COC(=O)CCC(=O)N1Cc2cc(C)ccc2N(C(=O)CCC(=O)OC)Cc2cc(C)ccc21			inactive
Cc1cc(S(=O)(=O)n2ccnc2Oc2cccc(Cl)c2)c(SSc2cc(Cl)c(C)cc2S(=O)(=O)n2ccnc2Oc2cccc(Cl)c2)cc1Cl	5.09	4.86	
CC1=C[C@H](C[C@]2(C)c3c(c4c(C)cccc4oc3=O)O[C@@H]2C)OC1=O	< 3.70	4.57	
CCN(CC)CCCC(C)Nc1c2cc(OC)cc(C)c2nc2c(C)c(Cl)ccc12 (configuration not stated)			inactive
S=C1C=C(c2ccccc2)Sc2ccccc2N1	< 3.70	4.22	
COc1ccc(N=Nc2c(C)c(C#N)c(=S)n(C3OC(COC(C)=O)C(OC(C)=O)C(OC(C)=O)C3OC(C)=O)c2C)cc1 (configuration not stated)	< 3.70	< 3.70	
[N-]=[N+]=NCC1OCC(O)C(OCc2ccccc2)C1OCc1ccccc1 (configuration not stated)	< 3.70	4.02	
O=C(/C=C\c1cccc(O)c1)/C=C/c1cccc(O)c1	3.97	3.95	
CN(C)c1ccc(/C(Br)=C2\OC(=O)c3ccccc32)cc1	< 3.70	3.95	
O=C1c2c(O)ccc(O)c2C(=O)c2c(NCCCO)ccc(NCCCO)c21	4.87	4.73	
CC1(O)CC2C(CC1SCCO)C2(C)C (configuration not stated)	< 2.97	3.20	
O=c1[nH]nc(CNc2ccc(Cl)cc2Cl)c2ccccc12	4.26	4.23	
CCOC(=O)NC(Nc1ccc(Cl)cn1)(C(F)(F)F)C(F)(F)F	< 3.70	< 3.70	
O=C1OC(=O)C2C3CC(C12)C1C3N1S(=O)(=O)c1ccccc1 (configuration not stated)	< 3.88	< 3.88	
Cc1ccc(SCC(OCn2cnc3c(N)ncnc32)[C@H](C)F)cc1 (some centres not stated)	< 3.70	3.72	

Structure (SMILES)	pEC50	pIC50	outcome
O=C(Nc1cc2c(oc1=O)CCCCC2)c1ccccc1	< 3.70	< 3.70	
CC1(C(=O)NCCN(CCNC(=O)C2(C)CC3(C)CC(C)(C2)C(=O)NC3=O)CCNC(=O)C2(C)CC3(C)CC(C)(C2)C(=O)NC3=O)CC2(C)CC(C)(C1)C(=O)NC2=O (configuration not stated)			inactive
CCCCCCCCCCCCCC(=O)OCC1OC(n2cc(C)c(=O)[nH]c2=O)CC1O (configuration not stated)	< 3.70	4.93	
O=c1ccc2ccc(O)cc2o1	< 2.81	3.52	
O=C(O)c1cc2ccccc2[nH]c1=O			inactive
CCN(CC)CCN1C(=O)c2cccc3cc([N+](=O)[O-])cc(c23)C1=O	< 3.70	5.83	
O=C(O)c1ccccc1C(=O)OC1CC2CCC1C2 (configuration not stated)	< 3.70	< 3.70	
N=C1SC23CCCN2C(=O)C2(CCCN2C3=O)S1	< 3.05	3.76	
CC1(C)CC(=O)C2=C(C1)Nc1ccc(Cl)cc1NC2c1ccccc1 (configuration not stated)	< 3.70	4.12	
CC(=O)c1ccc2c(ccc(=O)n2C)c1	< 3.33	3.97	
O=C(NNC(=O)c1ccccc1SSc1ccccc1C(=O)NNC(=O)c1ccccc1S)c1ccccc1S	4.75	4.48	
CCOC(=O)C1OC1C1CCCc2ccccc21 (configuration not stated)	< 3.70	< 4.00	
CCOC(=O)/C(O)=C/c1nc2ccccc2nc1C	< 4.33	< 4.33	
COCCCC(=O)NC(c1ccccc1)(c1ccccc1)c1ccccc1	< 3.70	< 3.70	
CN(C)/N=N/c1nc2c(c(=O)n(C)c(=O)n2C)n1CC1CO1 (configuration not stated)	< 3.70	4.92	
C=CCNC(=S)/N=C/C(C(=O)Nc1ccccc1)=C(/C)O	< 3.70	< 3.70	
Cc1ccc(C2=Nc3c(c(C)nn3-c3ccccc3)N=C(C(=O)O)C2)cc1	< 3.70	4.12	
CC(C)(C)c1ccc(-c2nc3ccccc3c(=O)o2)cc1	< 3.70	4.41	
CCOC(=O)/C=C/SC(C)(C)C(N)C(=O)O (configuration not stated)	< 3.00	< 3.00	
CC(=O)OC1OC(C2c3cccc(O)c3C(=O)c3c(O)cc(CO)cc32)C(O)C(O)C1O (configuration not stated)	< 3.70	5.39 and 5.38	
CC(C)C(NC(=O)OC(C)(C)C)C(=O)N1CCCC1C(=O)OCc1ccccc1 (stereo not drawn) (Boc-Val-Pro-OBn; configuration not given here)	< 3.70	3.91	
CC1(C)SCc2nc3ccccc3n21	< 3.70	3.73	

Structure (SMILES)	pEC50	pIC50	outcome
Clc1ccc(-c2c(C3=NCCCN3)nnn2-c2ccc(Cl)cc2)cc1	< 3.31	4.51	
CCOC(=O)CC(=O)Cc1oc2c(C(C)=O)c(O)c(C)c(O)c2c1C	< 3.70	4.67	
Cc1nnc2c3nccnc3c(N)nn12	< 3.70	< 3.70	
NC(CSS(=O)(=O)c1ccccc1)C(=O)O (configuration not stated)	< 3.70	< 3.70	
CCC1CN2CCC3(C(=O)Nc4ccccc43)C2CC1/C(=C/OC)C(=O)OC (configuration not stated)			inactive
O=C1C(=Cc2ccc(O)cc2)N=C(c2ccccc2)N1n1c(-c2ccccc2)nc2ccccc2c1=O	< 3.70	4.11	
COc1cccc(C2c3cc4c(cc3OC(NNS(=O)(=O)c3ccc(C)cc3)C2C)OCO4)c1O (configuration not stated)	< 3.70	4.98	
NCCCNCc1c2ccccc2c(CNCCCN)c2ccccc12	< 3.92	5.71	
CCOC(=O)/C(=C/c1ccc(C#N)cc1)N(CC)CC	< 3.60	< 3.60	
CN(C)CCSc1cccc(-c2cc(-c3cccc(SCCN(C)C)c3)nc(SCCN(C)C)n2)c1	< 3.34	6.15	
Cc1cnc([C@H]2CCC3[C@@H]4CC=C5C[C@@H](O)CC[C@]5(C)C4CC[C@@]32C)s1 (some centres not stated)	< 4.17	< 4.17	
N#C/C(=C\c1ccc(Cl)cc1)c1ccccc1[N+](=O)[O-]	< 3.70	3.92	
N#Cc1ncn(CCO)c1N	< 3.70	< 3.70	
NNc1c(Cl)c(=O)n(-c2ccccc2)[nH]c1=O	< 3.70	< 3.70	
CC(C)OC(=O)c1ccc(NCc2cc(O)ccc2O)cc1Cl	< 3.70	5.44	
O=C(CNc1nncs1)NO	< 2.84	3.79	
CC1=C(C#N)C2C(=C(N)Oc3ccccc32)C(N)=N1 (configuration not stated)	< 3.70	4.56	
CC1C2(C)OCC(C#N)(C(=N)O2)C1(C#N)C#N (configuration not stated)	< 3.70	4.68	
Cc1sc(N=Nc2c(O)[nH]c3ccccc23)nc1-c1ccccc1	< 3.70	4.36	
CC(C)(CO)NC(=O)c1cccs1	< 3.70	< 3.70	
